From patent US9867376B2, “Herbicidal compositions comprising N-tetrazol-5-yl)- or N-(triazol-5-yl)arylcarboxamides” (priority 2012, dated 2018)

Key:
Assay type in all cases: in vivo
Digitaria sanguinalis = assay: Greenhouse trial, post-emergence, visual herbicidal effect; details: alone
Method: (§1) The weed seeds were sown in pots (diameter 8 cm) with sandy loam soil and germinated under optimum conditions. The herbides were applied by the post-emergence method onto the pots with the cultures, at a spray volume of 300 I/ha. The herbicides were applied on their own and in combination. The trial was conducted in a greenhouse under optimum growth conditions. The herbicidal effects were assessed visually by comparison of untreated and treated plants. The percentages mean: 0%=no effects, 100%=the plants die off completely). The percentages are used to calculate interactions between individual treatments and combination treatment according to S. R. Colby, Weeds 15, pages 20 to 22 (1967).
(§2) The abbreviations denote: • a.i.=active ingredient • E^C=expected value according to Colby (E^C=A+B−A×B100) • Δ=difference (%) of the measured value to the expected value (%) (measured value minus expected value)
(§3) Evaluation: • measured value E is greater than E^C:→synergism (+Δ) • measured value E equals E^C:→additive effect • measured value E is smaller than E^C:→antagonism (−Δ)

Bidens pilosa = assay: as above
Method: as §1, §2, §3

Pharbitis purpurea = assay: as above; details: alone
Method: as §1, §2, §3

Setaria viridis = assay: as above
Method: as §1, §2, §3

Ambrosia artemisiifolia = assay: as above; details: alone
Method: as §1, §2, §3

Polygonum convolvulus = assay: as above; details: alone
Method: as §1, §2, §3

Centaurea cyanis = assay: as above; details: alone
Method: as §1, §2, §3

Avena fatua = assay: as above; details: Table 5-49, greenhouse, alone, 4 g of a.i./ha
Method: as §1, §2, §3

Euphorbia heterophylla = assay: Field trial, post-emergence, visual scoring
Method: (§4) The tests were conducted outdoors (plot trials, 10 m^2 per plot, 2 repetitions, spray application with 200-300 liters of water per hectare). Crops and broad-leaved weeds/weed grasses were sown under customary field conditions. In addition, a natural weed flora also appeared. Application was by the post-emergence method. The application rates of the herbicidally active compounds applied on their own or in combinations are likewise shown in the tables below. Evaluations were by visual scoring (using a 0-100% scale) after application by comparison of treated and untreated test variants.
as §2, §3

Brachiaria platyphylla = assay: Greenhouse trial, post-emergence, visual herbicidal effect
Method: as §1, §2, §3

Veronica hederifolia = assay: Field trial, post-emergence, visual scoring; details: alone, 25 g of a.i./ha
Method: as §4, §2, §3

Papaver rhoeas = assay: Greenhouse trial, post-emergence, visual herbicidal effect; details: alone
Method: as §1, §2, §3

Galium aparine = assay: Field trial, post-emergence, visual scoring; details: Table 5-92, field, alone, 25 g of a.i./ha
Method: as §4, §2, §3

Xanthium strumarium = assay: Greenhouse trial, post-emergence, visual herbicidal effect; details: alone
Method: as §1, §2, §3

Portulaca oleracea = assay: Field trial, post-emergence, visual scoring; details: alone
Method: as §4, §2, §3

[1] = Table 5-91, greenhouse, 2 g of a.i./ha
[2] = Table 5-97, greenhouse, alone, 0.5 g of a.i./ha
[3] = Table 5-99, greenhouse, 1 g of a.i./ha
[4] = Table 5-101, greenhouse, 1 g of a.i./ha
[5] = Table 5-100, greenhouse, 1 g of a.i./ha
[6] = Table 5-103, greenhouse, 2 g of a.i./ha

Compound: CCSc1c(Br)ccc(C(=O)Nc2nnnn2C)c1C [A1-23]
- Activity [%] against Digitaria sanguinalis (Digitaria sanguinalis; Table 5-35, greenhouse, 1 g of a.i./ha): 10%
- Activity [%] against Bidens pilosa (Bidens pilosa; Table 5-28, greenhouse, alone, 2 g of a.i./ha): 45%
- Activity [%] against Bidens pilosa (Bidens pilosa; Table 5-33, greenhouse, alone, 1 g of a.i./ha): 35%
- Activity [%] against Pharbitis purpurea (Pharbitis purpurea; Table 5-30, greenhouse, 1 g of a.i./ha): 45%
- Activity [%] against Pharbitis purpurea (Pharbitis purpurea; Table 5-34, greenhouse, 2 g of a.i./ha): 45%
- Activity [%] against Setaria viridis (Setaria viridis; Table 5-27, greenhouse, alone, 2 g of a.i./ha): 50%
- Activity [%] against Setaria viridis (Setaria viridis; Table 5-31, greenhouse, alone, 2 g of a.i./ha): 50%
- Activity [%] against Ambrosia artemisiifolia (Ambrosia artemisiifolia; Table 5-29, greenhouse, 1 g of a.i./ha): 10%
- Activity [%] against Ambrosia artemisiifolia (Ambrosia artemisiifolia; Table 5-32, greenhouse, 1 g of a.i./ha): 0%

Compound: Cc1c(C(=O)Nc2nnnn2C)ccc(S(C)(=O)=O)c1C1=NOCC1 [A1-24]
- Activity [%] against Digitaria sanguinalis (Digitaria sanguinalis; Table 5-36, greenhouse, 6 g of a.i./ha): 50%
- Activity [%] against Polygonum convolvulus (Polygonum convolvulus; Table 5-37, greenhouse, 6 g of a.i./ha): 0%

Compound: CCc1c(C(=O)Nc2nnnn2C)ccc(C(F)(F)F)c1SC [A1-33]
- Activity [%] against Setaria viridis (Setaria viridis; Table 5-43, greenhouse, alone, 2 g of a.i./ha): 75%
- Activity [%] against Polygonum convolvulus (Polygonum convolvulus; Table 5-44, greenhouse, 4 g of a.i./ha): 0%

Compound: COc1c(C(=O)Nc2nnnn2C)ccc(C(F)(F)F)c1SC [A1-44]
- Activity [%] against Centaurea cyanis (Centaurea cyanis; Table 5-50, greenhouse, 8 g of a.i./ha): 50%
- Activity [%] against Avena fatua (Avena fatua): 0%
- Activity [%] against Euphorbia heterophylla (Euphorbia heterophylla; Table 5-51, field, alone, 25 g of a.i./ha): 58%

Compound: Cn1nnnc1NC(=O)c1ccc(S(C)(=O)=O)c(COCC(F)(F)F)c1Cl [A1-61]
- Activity [%] against Brachiaria platyphylla (Brachiaria platyphylla; Table 5-64, greenhouse, alone, 6 g of a.i./ha): 0%
- Activity [%] against Setaria viridis (Setaria viridis; Table 5-65, greenhouse, alone, 3 g of a.i./ha): 0%
- Activity [%] against Veronica hederifolia (Veronica hederifolia; Table 5-66, field): 68%

Compound: CCS(=O)(=O)c1ccc(C(=O)Nc2nnnn2C)c(Cl)c1C1=NOC(COC)C1 (stereo not shown) [A1-66]
- Activity [%] against Ambrosia artemisiifolia (Ambrosia artemisiifolia; Table 5-75, greenhouse, 6 g of a.i./ha): 35%
- Activity [%] against Veronica hederifolia (Veronica hederifolia; Table 5-76, field): 75%

Compound: CCOc1c(S(C)(=O)=O)ccc(C(=O)Nc2nnnn2C)c1Cl [A1-69]
- Activity [%] against Centaurea cyanis (Centaurea cyanis; Table 5-81, greenhouse, 4 g of a.i./ha): 65%
- Activity [%] against Papaver rhoeas (Papaver rhoeas; Table 5-82, greenhouse, 4 g of a.i./ha): 10%
- Activity [%] against Papaver rhoeas (Papaver rhoeas; Table 5-83, greenhouse, 4 g of a.i./ha): 10%
- Activity [%] against Polygonum convolvulus (Polygonum convolvulus; Table 5-84, greenhouse, 4 g of a.i./ha): 0%
- Activity [%] against Euphorbia heterophylla (Euphorbia heterophylla; Table 5-85, field, alone, 25 g of a.i./ha): 20%

Compound: CCn1nnnc1NC(=O)c1ccc(C(F)F)c(SC)c1OC [A1-79]
- Activity [%] against Bidens pilosa (Bidens pilosa; Table 5-90, greenhouse, alone, 2 g of a.i./ha): 20%
- Activity [%] against Ambrosia artemisiifolia (Ambrosia artemisiifolia; [1]): 30%
- Activity [%] against Galium aparine (Galium aparine): 70%

Compound: COc1c(C(=O)Nc2nnnn2C)ccc(C(F)F)c1S(C)(=O)=O [A1-80]
- Activity [%] against Ambrosia artemisiifolia (Ambrosia artemisiifolia; Table 5-93, greenhouse, 1 g of a.i./ha): 25%

Compound: CCS(=O)(=O)c1ccc(C(=O)Nc2nnnn2C)c(Cl)c1OCCCOC [A1-83]
- Activity [%] against Brachiaria platyphylla (Brachiaria platyphylla; [2]): 0%
- Activity [%] against Bidens pilosa (Bidens pilosa; Table 5-96, greenhouse, alone, 1 g of a.i./ha): 35%

Compound: CCn1nnnc1NC(=O)c1ccc(C)c([S+](C)[O-])c1Cl (stereo not shown) [A1-84]
- Activity [%] against Xanthium strumarium (Xanthium strumarium; [3]): 10%
- Activity [%] against Pharbitis purpurea (Pharbitis purpurea; Table 5-98, greenhouse, 2 g of a.i./ha): 30%

Compound: CSc1c(C(F)(F)F)ccc(C(=O)Nc2nnnn2C)c1Cl [A1-85]
- Activity [%] against Xanthium strumarium (Xanthium strumarium; [4]): 25%
- Activity [%] against Ambrosia artemisiifolia (Ambrosia artemisiifolia; [5]): 50%

Compound: Cc1c(C(=O)Nc2ncnn2C)ccc(S(C)(=O)=O)c1S(C)(=O)=O [A2-4]
- Activity [%] against Xanthium strumarium (Xanthium strumarium; [6]): 10%
- Activity [%] against Ambrosia artemisiifolia (Ambrosia artemisiifolia; Table 5-102, greenhouse, 1 g of a.i./ha): 40%
- Activity [%] against Euphorbia heterophylla (Euphorbia heterophylla; Field, dosage 25 g of a.i./ha): 50%

Compound: CCS(=O)(=O)c1c(C(F)(F)F)ccc(C(=O)Nc2ncnn2C)c1Cl [A2-10]
- Activity [%] against Brachiaria platyphylla (Brachiaria platyphylla; Greenhouse, dosage 1 g of a.i./ha, Table 5-110): 35%
- Activity [%] against Brachiaria platyphylla (Brachiaria platyphylla; Greenhouse, dosage 2 g of a.i./ha, Table 5-109): 0%
- Activity [%] against Bidens pilosa (Bidens pilosa; Greenhouse, dosage 2 g of a.i./ha): 50%

Compound: Nc1c([N+](=O)[O-])ccc(Oc2ccccc2)c1Cl [aclonifen]
- Activity [%] against Portulaca oleracea (Portulaca oleracea; Table 5-22, field, 1200 g of a.i./ha): 0%

Compound: C/C(=N\NC(=O)Nc1cc(F)cc(F)c1)c1ncccc1C(=O)O [diflufenzopyr]
- Activity [%] against Brachiaria platyphylla (Brachiaria platyphylla; Greenhouse, dosage 25 g of a.i./ha, Table 5-113): 60%
- Activity [%] against Setaria viridis (Setaria viridis; Greenhouse, dosage 12.5 g of a.i./ha): 50%
- Activity [%] against Ambrosia artemisiifolia (Ambrosia artemisiifolia; Table 5-93, greenhouse, 25 g of a.i./ha): 50%

Compound: COc1cc(OC)nc(NC(=O)NS(=O)(=O)c2cc(NC=O)ccc2C(=O)N(C)C)n1 [foramsulfuron]
- Activity [%] against Portulaca oleracea (Portulaca oleracea; Table 5-14, field, 16 g of a.i./ha): 0%

Compound: COCc1cnc(C2=NC(C)(C(C)C)C(=O)N2)c(C(=O)O)c1 (stereo not shown) [imazamox]
- Activity [%] against Brachiaria platyphylla (Brachiaria platyphylla; Table 5-45, greenhouse, alone, 2 g of a.i./ha): 10%
- Activity [%] against Xanthium strumarium (Xanthium strumarium; [3]): 0%
- Activity [%] against Xanthium strumarium (Xanthium strumarium; [4]): 10%
- Activity [%] against Xanthium strumarium (Xanthium strumarium; [6]): 0%
- Activity [%] against Bidens pilosa (Bidens pilosa; Table 5-46, greenhouse, alone, 1 g of a.i./ha): 10%
- Activity [%] against Bidens pilosa (Bidens pilosa; Table 5-47, greenhouse, alone, 2 g of a.i./ha): 20%
- Activity [%] against Bidens pilosa (Bidens pilosa; Table 5-90, greenhouse, alone, 1 g of a.i./ha): 10%
- Activity [%] against Pharbitis purpurea (Pharbitis purpurea; Table 5-98, greenhouse, 1 g of a.i./ha): 15%
- Activity [%] against Ambrosia artemisiifolia (Ambrosia artemisiifolia; [1]): 10%
- Activity [%] against Ambrosia artemisiifolia (Ambrosia artemisiifolia; [5]): 0%
- Activity [%] against Ambrosia artemisiifolia (Ambrosia artemisiifolia; Table 5-102, greenhouse, 2 g of a.i./ha): 0%

Compound: CC(C)c1ccc(NC(=O)N(C)C)cc1 [isoproturon]
- Activity [%] against Centaurea cyanis (Centaurea cyanis; Table 5-81, greenhouse, 100 g of a.i./ha): 0%
- Activity [%] against Papaver rhoeas (Papaver rhoeas; Table 5-82, greenhouse, 200 g of a.i./ha): 40%
- Activity [%] against Papaver rhoeas (Papaver rhoeas; Table 5-83, greenhouse, 200 g of a.i./ha): 40%
- Activity [%] against Setaria viridis (Setaria viridis; Table 5-43, greenhouse, alone, 200 g of a.i./ha): 10%
- Activity [%] against Polygonum convolvulus (Polygonum convolvulus; Table 5-44, greenhouse, 200 g of a.i./ha): 0%
- Activity [%] against Polygonum convolvulus (Polygonum convolvulus; Table 5-84, greenhouse, 200 g of a.i./ha): 0%

Compound: CS(=O)(=O)c1ccc(C(=O)C2C(=O)CCCC2=O)c([N+](=O)[O-])c1 [mesotrione]
- Activity [%] against Portulaca oleracea (Portulaca oleracea; Table 5-15, field, 25 g of a.i./ha): 0%

Compound: COc1cc(OC)nc(NC(=O)NS(=O)(=O)c2ncccc2C(=O)N(C)C)n1 [nicosulfuron]
- Activity [%] against Portulaca oleracea (Portulaca oleracea; Table 5-19, field, 20 g of a.i./ha): 30%

Compound: CCC(CC)Nc1c([N+](=O)[O-])cc(C)c(C)c1[N+](=O)[O-] [pendimethalin]
- Activity [%] against Digitaria sanguinalis (Digitaria sanguinalis; Table 5-36, greenhouse, 50 g of a.i./ha): 0%
- Activity [%] against Xanthium strumarium (Xanthium strumarium; Table 5-77, greenhouse, 100 g of a.i./ha): 0%
- Activity [%] against Polygonum convolvulus (Polygonum convolvulus; Table 5-37, greenhouse, 100 g of a.i./ha): 0%
- Activity [%] against Polygonum convolvulus (Polygonum convolvulus; Table 5-78, greenhouse, 100 g of a.i./ha): 0%

Compound: CCS(=O)(=O)c1cccnc1S(=O)(=O)NC(=O)Nc1nc(OC)cc(OC)n1 [rimsulfuron]
- Activity [%] against Portulaca oleracea (Portulaca oleracea; Table 5-20, field, 6 g of a.i./ha): 0%

Compound: COC(=O)c1csc(C)c1S(=O)(=O)NC(=O)n1nc(OC)n(C)c1=O [thiencarbazone-methyl]
- Activity [%] against Brachiaria platyphylla (Brachiaria platyphylla; [2]): 75%
- Activity [%] against Bidens pilosa (Bidens pilosa; Table 5-96, greenhouse, alone, 0.5 g of a.i./ha): 40%
- Activity [%] against Ambrosia artemisiifolia (Ambrosia artemisiifolia; Table 5-52, greenhouse, 0.25 g of a.i./ha): 0%
- Activity [%] against Ambrosia artemisiifolia (Ambrosia artemisiifolia; Table 5-75, greenhouse, 0.25 g of a.i./ha): 0%

Compound: bicyclopyrone
- Activity [%] against Portulaca oleracea (Portulaca oleracea; Table 5-18, field, 25 g of a.i./ha): 23%
